# Changes are numbered by the printed parent chain.
# Legend:
# [1] = molecular target: T1, wild-type human androgen receptor (Homo sapiens, UniProt P10275); experiment: Cell-based transactivation assay for wild-type human androgen receptor (PC-3 cells, MMTV-luciferase reporter)
# T1 construct: expressed in transfected cells
# T1 sequence (P10275 1-920): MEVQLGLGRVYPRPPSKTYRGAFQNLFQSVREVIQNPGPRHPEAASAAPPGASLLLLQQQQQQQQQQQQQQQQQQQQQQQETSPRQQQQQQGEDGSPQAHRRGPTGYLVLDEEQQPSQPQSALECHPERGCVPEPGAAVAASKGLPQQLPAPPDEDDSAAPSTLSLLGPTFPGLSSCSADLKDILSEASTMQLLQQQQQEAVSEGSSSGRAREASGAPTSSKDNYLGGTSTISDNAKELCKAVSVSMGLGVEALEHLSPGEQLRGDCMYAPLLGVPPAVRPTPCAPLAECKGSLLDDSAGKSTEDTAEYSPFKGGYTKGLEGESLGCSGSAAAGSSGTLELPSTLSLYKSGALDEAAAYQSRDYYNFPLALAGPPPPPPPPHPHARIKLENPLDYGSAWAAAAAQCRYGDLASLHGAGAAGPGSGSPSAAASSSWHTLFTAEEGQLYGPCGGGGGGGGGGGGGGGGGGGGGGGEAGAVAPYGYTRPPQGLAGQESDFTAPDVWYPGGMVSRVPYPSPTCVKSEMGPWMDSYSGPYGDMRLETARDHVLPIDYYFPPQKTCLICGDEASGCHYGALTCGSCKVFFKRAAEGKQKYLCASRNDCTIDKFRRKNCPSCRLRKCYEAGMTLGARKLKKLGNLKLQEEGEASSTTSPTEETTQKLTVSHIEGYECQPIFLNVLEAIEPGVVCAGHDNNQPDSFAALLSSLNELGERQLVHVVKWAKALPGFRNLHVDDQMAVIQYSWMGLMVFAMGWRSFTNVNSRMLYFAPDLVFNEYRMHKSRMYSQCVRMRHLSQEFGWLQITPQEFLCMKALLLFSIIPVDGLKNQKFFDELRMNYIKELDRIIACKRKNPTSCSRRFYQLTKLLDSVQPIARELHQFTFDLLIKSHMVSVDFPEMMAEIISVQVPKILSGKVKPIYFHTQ
# Protocol: Cell-Based Transactivation Assay for Wild-Type Human Androgen Receptor
# PC-3 cells (Kaighn et al., Invest. Urol. 17:16-23, 1979) stably transfected with the human androgen receptor (Swiss-Prot Acc. No. P10275, Entry Version 159, Sequence Version 2) and a reporter plasmid based on pGL4.14 (#E6691, Promega Corporation, Madison, Wis., USA) containing the MMTV promoter (Cato et al., EMBO J. 6:363-8, 1987) were used. They were grown in 5% charcoal-stripped medium and seeded at a concentration of 1000 cells per well in a 384-well plate. For determination of antagonistic activity, the plate additionally contained the compound to be tested at a concentration range varying from 5.12×10^−12 to 1×10^−5 M. The assay was performed in presence of 1×10^−10 R1881 (also known as methyltrienolone). After overnight incubation at 37° C. in a 5% CO2 atmosphere, 15 μl of Steady Glo Lysis and Detection reagent (Steady Glo Luciferase assay system E2550 from Promega Corporation. Madison, Wis., USA) were added. IC50 was calculated for anti-androgenic activity as well as percentage inhibition in presence of 2 μM compound in comparison to non-stimulated luciferase signal. Agonistic activity was determined using the same concentration range of compound in the absence of R1881 by measuring Luciferase activity as above. EC50 was calculated for androgenic activity. Assay/read plates were used (Polystyrol; 384, NV-white cell culture plates; Perkin Elmer).
# [2] = molecular target: T2, human androgen receptor W741L mutant (Homo sapiens, UniProt P10275, W742L); experiment: Cell-based transactivation assay for human androgen receptor mutant W741L
# T2 construct: expressed in transfected cells; host or cells: PC-3 cells, transient transfection with a pSG5-derived plasmid
# T2 sequence (P10275 1-920 W742L): T1 sequence (P10275 1-920) with W742L
# VCaP cells = experiment: Proliferation assay with VCaP cells; type: cell-based; details: Homo sapiens, 168 h, R1881 (1×10^−10) stimulated growth, day 7, read-out: Antiproliferative activity VCaP IC50
# Protocol: Proliferation Assay with VCaP Cells
# VCaP cells ((Korenchuk et al., In Vivo 15: 163-168, 2001)) were seeded at 16 000 cells/well in 96-well plates in DMEM (F0445, Biochrom AG, Berlin, Germany) with phenol red supplemented with 10% charcoal-stripped serum. After 1 day, the cells were treated with R1881 (1×10^−10) and compound (day 0). Cell number was determined by Alamar Blue (DAL1100, Invitrogen, Life Technologies, Lohne, Germany) staining (2.5 h) at day 0 and day 7. Fluorescence was determined in Victor3 (Excitation 530 nm; emission 590 nm). Stimulated growth was defined as the signal measured at day 7 for cells treated only with R1881. Basal level was defined as the signal measured at day 7 for cells grown without R1881.
SMILES,EC50 [1] [nM],IC50 [2] [nM],IC50 (VCaP cells) [nM]
"COCCOc1ccc(CN2C(=S)N(c3ccc(C#N)c(C(F)(F)F)c3)C(=O)C2(C)C)cn1 [Example 11, 4-(3-{[6-(2-Methoxyethoxy)pyridin-3-yl]methyl}-4,4-dimethyl-5-oxo-2-thioxoimidazolidin-1-yl)-2-(trifluoromethyl)benzonitrile]",> 10000,–,–
"CN1CCCN(c2ccc(CN3C(=S)N(c4ccc(C#N)c(C(F)(F)F)c4)C(=O)C3(C)C)cn2)CC1 [Example 12, 4-(4,4-Dimethyl-3-{[6-(4-methyl-1,4-diazepan-1-yl)pyridin-3-yl]methyl}-5-oxo-2-thioxoimidazolidin-1-yl)-2-(trifluoromethyl)benzonitrile]",> 10000,–,–
"CC1(C)C(=O)N(c2ccc(C#N)c(C(F)(F)F)c2)C(=S)N1Cc1ccc(N2CCC(CO)CC2)nc1 [Example 14, 4-[3-({6-[4-(Hydroxymethyl)piperidin-1-yl]pyridin-3-yl}methyl)-4,4-dimethyl-5-oxo-2-thioxoimidazolidin-1-yl]-2-(trifluoromethyl)benzonitrile]",6000,–,–
"CC1(C)C(=O)N(c2ccc(C#N)c(C(F)(F)F)c2)C(=S)N1Cc1ccc(N2CCNC2=O)nc1 [Example 25, 4-(4,4-Dimethyl-5-oxo-3-{[6-(2-oxoimidazolidin-1-yl)pyridin-3-yl]methyl}-2-thioxoimidazolidin-1-yl)-2-(trifluoromethyl)benzonitrile]",> 10000,246,–
"CC1(C)C(=O)N(c2ccc(C#N)c(C(F)(F)F)c2)C(=S)N1Cc1ccc(N=[S@](C)(=O)c2ccccc2)nc1 [Example 26, (R)-4-{4,4-Dimethyl-3-[(6-{[methyl(oxido)phenyl-λ^6-sulfanylidene]amino}pyridin-3-yl)methyl]-5-oxo-2-thioxoimidazolidin-1-yl}-2-(trifluoromethyl)benzonitrile]",> 10000,211,–
"Cc1ccnn1-c1ccc(CN2C(=S)N(c3ccc(C#N)c(C(F)(F)F)c3)C(=O)C2(C)C)cn1 [Example 27, 4-(4,4-Dimethyl-3-{[6-(5-methyl-1H-pyrazol-1-yl)pyridin-3-yl]methyl}-5-oxo-2-thioxoimidazolidin-1-yl)-2-(trifluoromethyl)benzonitrile]",> 10000,–,–
"CC1(C)C(=O)N(c2ccc(C#N)c(C(F)(F)F)c2)C(=S)N1Cc1ccc(OCC(F)(F)CO)nc1 [Example 28, 4-(3-{[6-(2,2-Difluoro-3-hydroxypropoxy)pyridin-3-yl]methyl}-4,4-dimethyl-5-oxo-2-thioxoimidazolidin-1-yl)-2-(trifluoromethyl)benzonitrile]",> 10000,–,–
"CC1(C)C(=O)N(c2ccc(C#N)c(C(F)(F)F)c2)C(=S)N1Cc1ccc(-n2ccnn2)nc1 [Example 29, 4-(4,4-Dimethyl-5-oxo-2-thioxo-3-{[6-(1H-1,2,3-triazol-1-yl)pyridin-3-yl]methyl}imidazolidin-1-yl)-2-(trifluoromethyl)benzonitrile]",> 10000,–,–
"CC1(C)C(=O)N(c2ccc(C#N)c(C(F)(F)F)c2)C(=S)N1Cc1ccc(-n2nccn2)nc1 [Example 30, 4-(4,4-Dimethyl-5-oxo-2-thioxo-3-{[6-(2H-1,2,3-triazol-2-yl)pyridin-3-yl]methyl}imidazolidin-1-yl)-2-(trifluoromethyl)benzonitrile]",> 10000,–,–
"CC1(C)C(=O)N(c2ccc(C#N)c(C(F)(F)F)c2)C(=S)N1Cc1ccc(-n2cnnn2)nc1 [Example 31, 4-(4,4-Dimethyl-5-oxo-3-{[6-(1H-tetrazol-1-yl)pyridin-3-yl]methyl}-2-thioxoimidazolidin-1-yl)-2-(trifluoromethyl)benzonitrile]",> 10000,≥ 1000,–
"CC1(C)C(=O)N(c2ccc(C#N)c(C(F)(F)F)c2)C(=S)N1Cc1ccc(-n2cnc(Cl)c2Cl)nc1 [Example 32, 4-(3-{[6-(4,5-Dichloro-1H-imidazol-1-yl)pyridin-3-yl]methyl}-4,4-dimethyl-5-oxo-2-thioxoimidazolidin-1-yl)-2-(trifluoromethyl)benzonitrile]",> 10000,–,–
"CC1(C)C(=O)N(c2ccc(C#N)c(C(F)(F)F)c2)C(=S)N1Cc1ccc(-n2cnc(C(F)(F)F)n2)nc1 [Example 33, 4-[4,4-Dimethyl-5-oxo-2-thioxo-3-({6-[3-(trifluoromethyl)-1H-1,2,4-triazol-1-yl]pyridin-3-yl}methyl)imidazolidin-1-yl]-2-(trifluoromethyl)benzonitrile]",> 10000,–,–
"CC1(C)C(=O)N(c2ccc(C#N)c(C(F)(F)F)c2)C(=S)N1Cc1ccc(-n2cnc(CO)c2)nc1 [Example 34, 4-[3-({6-[4-(Hydroxymethyl)-1H-imidazol-1-yl]pyridin-3-yl}methyl)-4,4-dimethyl-5-oxo-2-thioxoimidazolidin-1-yl]-2-(trifluoromethyl)benzonitrile]",> 10000,259,331
"CC1(C)C(=O)N(c2ccc(C#N)c(C(F)(F)F)c2)C(=S)N1Cc1ccc(OCCN2CCNC2=O)nc1 [Example 35, 4-[4,4-Dimethyl-5-oxo-3-({6-[2-(2-oxoimidazolidin-1-yl)ethoxy]pyridin-3-yl}methyl)-2-thioxoimidazolidin-1-yl]-2-(trifluoromethyl)benzonitrile]",> 10000,44.6,–
"CC1(C)C(=O)N(c2ccc(C#N)c(C(F)(F)F)c2)C(=S)N1Cc1ccc(N2CCS(=O)(=NC#N)CC2)nc1 [Example 36, {4-[5-({3-[4-Cyano-3-(trifluoromethyl)phenyl]-5,5-dimethyl-4-oxo-2-thioxoimidazolidin-1-yl}methyl)pyridin-2-yl]-1-oxido-1λ^6,4-thiomorpholin-1-ylidene}cyanamide]",> 10000,≥ 1000,329
"Cc1nc(OCC(C)(C)O)ccc1CN1C(=S)N(c2ccc(C#N)c(C(F)(F)F)c2)C(=O)C1(C)C [Example 37, 4-(3-{[6-(2-Hydroxy-2-methylpropoxy)-2-methylpyridin-3-yl]methyl}-4,4-dimethyl-5-oxo-2-thioxoimidazolidin-1-yl)-2-(trifluoromethyl)benzonitrile]",> 10000,241,323
"Cc1nnnn1-c1ccc(CN2C(=S)N(c3ccc(C#N)c(C(F)(F)F)c3)C(=O)C2(C)C)cn1 [Example 38, 4-(4,4-Dimethyl-3-{[6-(5-methyl-1H-tetrazol-1-yl)pyridin-3-yl]methyl}-5-oxo-2-thioxoimidazolidin-1-yl)-2-(trifluoromethyl)benzonitrile]",> 10000,366,–

# Source: patent US20120251551A1, “Substituted (Heteroarylmethyl)thiohydantoins” (BAYER PHARMA AKTIENGESELLSCHAFT, priority 2009, published 2012)
